Broadly, the pIC50 is −log10 of the IC50, conventionally taken in molar units. Usually inhibition stands for the drop in the measured response relative to a control, in per cent. A word on the IC50: it is the point on the concentration scale where inhibition reaches its midpoint.

Molecules are shown by their SMILES. pIC50: −log10 of the molar value.

T1 sequence (P15056 whole entry V600E): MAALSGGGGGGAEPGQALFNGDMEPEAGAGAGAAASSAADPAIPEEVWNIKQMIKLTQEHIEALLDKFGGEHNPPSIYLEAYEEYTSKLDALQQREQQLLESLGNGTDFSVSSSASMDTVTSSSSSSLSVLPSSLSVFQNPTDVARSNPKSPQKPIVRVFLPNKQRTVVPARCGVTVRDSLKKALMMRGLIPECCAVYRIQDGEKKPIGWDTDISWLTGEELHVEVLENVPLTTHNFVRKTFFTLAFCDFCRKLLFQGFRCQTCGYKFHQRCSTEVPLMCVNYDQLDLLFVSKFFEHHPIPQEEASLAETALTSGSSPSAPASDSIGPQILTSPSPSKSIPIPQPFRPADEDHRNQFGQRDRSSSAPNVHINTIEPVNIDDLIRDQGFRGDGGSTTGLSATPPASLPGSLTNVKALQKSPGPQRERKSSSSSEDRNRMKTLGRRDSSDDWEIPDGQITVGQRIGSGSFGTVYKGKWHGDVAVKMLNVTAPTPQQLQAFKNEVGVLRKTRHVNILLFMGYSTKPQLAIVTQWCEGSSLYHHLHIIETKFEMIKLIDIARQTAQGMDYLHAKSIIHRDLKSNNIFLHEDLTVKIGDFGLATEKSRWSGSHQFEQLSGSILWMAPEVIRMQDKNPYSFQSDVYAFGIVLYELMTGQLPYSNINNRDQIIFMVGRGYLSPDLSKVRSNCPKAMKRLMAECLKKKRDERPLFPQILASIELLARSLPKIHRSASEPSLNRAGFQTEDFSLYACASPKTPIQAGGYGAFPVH

One assay addresses T1, mutant B-RAF (Homo sapiens, UniProt P15056, V600E).
T1 construct: purchased Upstate (Charlottesville, Va.)
In words: RAF biochemical assay (MEK-1 phosphorylation, anti-phospho MEK1/2 detection).
Settings: not given
A digest of the protocol:
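Detection is by ELISA: after a 30 min room-temperature reaction, plate-captured GST-MEK-1 is probed with anti-phospho MEK1/2, then an AP-tagged secondary antibody with fluorescent Attophos read-out.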
In turn, `O=C([C@@H]1CCCN1)N1CCC[C@@H](Nc2nccc(-c3c(-c4ccc(F)cc4)nc4occn34)n2)C1` [Example 37, 4-[6-(4-fluorophenyl)imi-dazo[2,1-b][1,3]oxazol-5-yl]-N-[(3R)-1-L-prolylpiperidin-3-yl]pyrimidin-2-amine] had a pIC50 below 5.30. Still for that read-out and setting: next, `CC(C)(N)C(=O)N1CCC[C@@H](Nc2nccc(-c3c(-c4ccc(F)cc4)nc4occn34)n2)C1` [Example 36, N-[(3R)-1-(2-amino-2-methylpropanoyl)piperidin-3-yl]-4-[6-(4-fluorophenyl)imi-dazo[2,1-b][1,3]oxazol-5-yl]pyrimidin-2-amine]: 5.34.

The assay is the same for the next values; noted with them: @ 2 uM.
Molecule `O=[N+]([O-])c1ccc(-c2nc3sccn3c2-c2ccnc(NC3CCNCC3)n2)cc1` [Example 247, 4-[6-(4-nitrophenyl)imidazo[2,1-b][1,3]thiazol-5-yl]-N-piperidin-4-ylpyrimidin-2-amine] yielded an inhibition at 2 µM of 9%.

Still in this assay, the particulars now being: @ 10 uM; read-out: Mutant B-RAF % inhibition.
Take `O=[N+]([O-])c1cccc(-c2nc3sccn3c2-c2ccnc(N[C@@H]3CCCN(S(=O)(=O)c4ccc(Cl)cc4)C3)n2)c1` [Example 120, N-{(3R)-1-[(4-chlorophenyl)sulfonyl]piperidin-3-yl}-4-[6-(3-nitrophenyl)imidazo[2,1-b][1,3]thiazol-5-yl]pyrimidin-2-amine]: the inhibition at 10 µM is 55%.

As to `COc1cccc(-c2nc3occn3c2-c2ccnc(N[C@@H]3CCCN(S(=O)(=O)c4ccc(Cl)cc4)C3)n2)c1` [Example 103, N-{(3R)-1-[(4-chlorophenyl)sulfonyl]piperidin-3-yl}-4-[6-(3-methoxyphenyl)imidazo[2,1-b][1,3]oxazol-5-yl]pyrimidin-2-amine], the inhibition at 10 µM came out at 48%. As to `Fc1ccc(CN2CCCC(Nc3nccc(-c4c(-c5ccc(F)cc5)nc5sccn45)n3)C2)cc1` (centres unmarked) [Example 4], the inhibition at 10 µM is 55%. Still for that read-out and setting: in the case of `Cc1cn2c(-c3ccnc(NC4CCN(C(=O)NCc5ccco5)CC4)n3)c(-c3ccc(F)cc3)nc2s1` [Example 242, 4-({4-[6-(4-fluorophenyl)-2-methylimidazo[2,1-b][1,3]thiazol-5-yl]pyrimidin-2-yl}amino)-N-(2-furylmethyl)piperidine-1-carboxamide] it was 67%.

The assay is the same for the next values; noted with them: read-out: Mutant B-RAF % inhibition.
On to `O=S(=O)(c1ccc(Oc2ccccc2)cc1)N1CCC[C@@H](Nc2nccc(-c3c(-c4ccc(F)cc4)nc4occn34)n2)C1` [Example 60, 4-[6-(4-fluorophenyl)imi-dazo[2,1-b][1,3]oxazol-5-yl]-N-{(3R)-1-[(4-phenoxy-phenyl)sulfonyl]piperidin-3-yl}pyrimidin-2-amine], for which the inhibition at 10 µM was found to be 15%. Same read-out and setting: in the case of `Cc1ccccc1S(=O)(=O)N1CCC[C@@H](Nc2nccc(-c3c(-c4ccc(F)cc4)nc4occn34)n2)C1` [Example 53, 4-(6-(4-fluorophenyl)imi-dazo[2,1-b][1,3]oxazol-5-yl]-N-{(3R)-1-[(2-methylphenyl)sulfonyl]piperidin-3-yl}pyrimidin-2-amine] it was 42%.

For `COc1cccc(-c2nc3sccn3c2-c2ccnc(N[C@@H]3CCCN(C(=O)Nc4ccc(N(C)C)cc4)C3)n2)c1` [Example 84, (3R)-N-[4-(dimethylamino)phenyl]-3-({4-[6-(3-methoxyphenyl)imi-dazo[2,1-b][1,3]thiazol-5-yl]pyrimidin-2-yl}amino)piperidine-1-carboxamide], the inhibition at 10 µM is 19%.

The assay is the same for the next values; noted with them: read-out: Mutant B-RAF IC50.
On to `O=S(=O)(c1cccc(Cl)c1)N1CCC(Nc2nccc(-c3c(-c4ccc(F)cc4)nc4occn34)n2)CC1` [Example 206, N-{1-[(3-chlorophenyl)sulfonyl]piperidin-4-yl}-4-[6-(4-fluorophenyl)imidazo[2,1-b][1,3]oxazol-5-yl]pyrimidin-2-amine], for which the pIC50 was 6.48. The same measure, in the same setting: next, `O=S(=O)(c1ccc(Cl)cc1)N1CCC[C@@H](Nc2nccc(-c3c(-c4ccc(/C=N/O)cc4)nc4sccn34)n2)C1` [Example 392, 4-{5-[2-({(3R)-1-[(4-chlorophenyl)sulfonyl]piperidin-3-yl}amino)pyrimidin-4-yl]imidazo[2,1-b][1,3]thiazol-6-yl}benzaldehyde oxime]: 6.16; `O=S(=O)(c1ccc(OC(F)(F)F)cc1)N1CCC(Nc2nccc(-c3c(-c4ccc(F)cc4)nc4occn34)n2)CC1` [Example 203, 4-[6-(4-fluorophenyl)imidazo[2,1-b][1,3]oxazol-5-yl]-N-(1-{[4-(trifluoromethoxy)phenyl]sulfonyl}piperidin-4-yl)pyrimidin-2-amine]: 6.28; `Fc1ccc(-c2nc3sccn3c2-c2ccnc(NC3CCNCC3)n2)cc1` [Example 155, 4-[6-(4-fluorophenyl)imidazo[2,1-b][1,3]thiazol-5-yl]-N-piperidin-4-ylpyrimidin-2-amine]: 5.63. As to `Cc1nc(-c2cccc(-c3nc4sccn4c3-c3ccnc(N[C@@H]4CCCNC4)n3)c2)no1` [Example 365, 4-{6-[3-(5-methyl-1,2,4-oxadia-zol-3-yl)phenyl]imidazo[2,1-b][1,3]thiazol-5-yl}-N-[(3R)-piperidin-3-yl]pyrimidin-2-amine], the pIC50 was 7.52. Take `O=S(=O)(c1cccs1)N1CCC[C@@H](Nc2nccc(-c3c(-c4cccc(O)c4)nc4occn34)n2)C1` [Example 388, 3-[5-(2-{[(3R)-1-(2-thienylsulfonyl)piperidin-3-yl]amino}pyrimidin-4-yl)imidazo[2,1-b][1,3]oxazol-6-yl]phenol]: the pIC50 was 8.05. On to `O=S(=O)(c1ccc(Cl)cc1)N1CCC[C@@H](Nc2nccc(-c3c(-c4cccc(/C=N\O)c4)nc4sccn34)n2)C1` [Example 395, 3-{5-[2-({(3R)-1-[(4-chlorophenyl)sulfonyl]piperidin-3-yl}amino)pyrimidin-4-yl]imidazo[2,1-b][1,3]thiazol-6-yl}benzaldehyde oxime], for which the pIC50 is 7.74.

`O=S(=O)(C1CC1)N1CCC(Nc2nccc(-c3c(-c4cccc(O)c4)nc4sccn34)n2)CC1` [Example 315, 3-[5-(2-{[1-(cyclopropylsulfonyl)piperidin-4-yl]amino}pyrimidin-4-yl)imidazo[2,1-b][1,3]thiazol-6-yl}phenol]: the pIC50 was 7.96. Still for that read-out and setting: next, `O=C(COc1ccc(Cl)cc1)N1CCC(Nc2nccc(-c3c(-c4ccc(F)cc4)nc4occn34)n2)CC1` [Example 160, N-{1-[(4-chlorophenoxy)acetyl]piperidin-4-yl}-4-[6-(4-fluorophenyl)imidazo[2,1-b][1,3]oxazol-5-yl]pyrimidin-2-amine]: 5.41; `CCCCNC(=O)N1CCC(Nc2nccc(-c3c(-c4ccc(F)cc4)nc4occn34)n2)CC1` [Example 168, N-butyl-4-({4-[6-(4-fluorophenyl)imidazo[2,1-b][1,3]oxazol-5-yl]pyrimidin-2-yl}amino)piperidine-1-carboxamide]: 5.95; `COc1cccc(-c2nc3occn3c2-c2ccnc(NC3CCN(C(=O)NS(=O)(=O)c4ccc(Cl)cc4)CC3)n2)c1` [Example 324, N-[(4-chlorophenyl)sulfonyl]-4-({4-[6-(3-methoxyphenyl)imidazo[2,1-b][1,3]oxazol-5-yl]pyrimidin-2-yl}amino)piperidine-1-carboxamide]: 5.40. Take `O=S(=O)(c1ccc(Cl)cc1)N1CCC(Nc2nccc(-c3c(-c4cccc(O)c4)nc4occn34)n2)CC1` [Example 321, 3-{5-[2-({1-[(4-chlorophenyl)sulfonyl]piperidin-4-yl}amino)pyrimidin-4-yl]imidazo[2,1-b][1,3]oxazol-6-yl}phenol]: the pIC50 is 6.90. For the molecule `O=S(=O)(c1ccc(F)c(Cl)c1)N1CCC(Nc2nccc(-c3c(-c4ccc(F)cc4)nc4occn34)n2)CC1` [Example 204, N-{1-[(3-chloro-4-fluorophenyl)sulfonyl]piperidin-4-yl}-4-[-6-(4-fluorophenyl)imidazo[2,1-b][1,3]oxazol-5-yl]pyrimidin-2-amine], the pIC50 is 6.27.

For the molecule `COc1cccc(-c2nc3sccn3c2-c2ccnc(N[C@@H]3CCCN(C(=O)Nc4ccc(SC)cc4)C3)n2)c1` [Example 330, (3R)-3-({4-[6-(3-methoxyphenyl)imidazo[2,1-b][1,3]thiazol-5-yl]pyrimidin-2-yl}amino)-N-[4-(methylthio)phenyl]piperidine-1-carboxamide], the pIC50 was 5.40. Turning to `Cn1cnc(S(=O)(=O)N2CCC[C@@H](Nc3nccc(-c4c(-c5cccc(O)c5)nc5sccn45)n3)C2)c1` [Example 366, 3-{5-[2-({(3R)-1-[(1-methyl-1H-imidazol-4-yl)sulfonyl]piperidin-3-yl}amino)pyrimidin-4-yl]imidazo[2,1-b][1,3]thiazol-6-yl}phenol], the pIC50 was 7.96. As for `CC(C)c1ccc(S(=O)(=O)N2CCC(Nc3nccc(-c4c(-c5ccc(F)cc5)nc5occn45)n3)CC2)cc1` [Example 201, 4-[6-(4-fluorophenyl)imidazo[2,1-b][1,3]oxazol-5-yl]-N-{1-[(4-isopropylphenyl)sulfonyl]piperidin-4-yl}pyrimidin-2-amine], the pIC50 was 6.38. In the case of `O=C(O)c1ccc(-c2nc3sccn3c2-c2ccnc(N[C@@H]3CCCN(S(=O)(=O)c4ccc(Cl)cc4)C3)n2)cc1` [Example 127, 4-{5-[2-({(3R)-1-[(4-chlorophenyl)sulfonyl]piperidin-3-yl}amino)pyrimidin-4-yl]imidazo[2,1-b][1,3]thiazol-6-yl}benzoic acid], the pIC50 was below 5.52. Same read-out and setting: next, `CCCNC(=O)N1CCC(Nc2nccc(-c3c(-c4cccc(O)c4)nc4sccn34)n2)CC1` [Example 355, 4-({4-[6-(3-hydroxyphenyl)imidazo[2,1-b][1,3]thiazol-5-yl]pyrimidin-2-yl}amino)-N-propylpiperidine-1-carboxamide]: 5.75.

Staying with this assay, now noted: read-out: Mutant B-RAF IC50 (uM) or % inhibition.
In the case of `O=S(=O)(C1CC1)N1CCC[C@@H](Nc2nccc(-c3c(-c4cccc(O)c4)nc4occn34)n2)C1` [Example 397, 3-[5-(2-{[(3R)-1-(cyclopropylsulfonyl)piperidin-3-yl]amino}pyrimidin-4-yl)imidazo[2,1-b][1,3]oxazol-6-yl]phenol], the IC50 stood at 2.3 µM.

Source of the values: patent US7501430B2 (ArQule, Inc., priority 2006, dated 2009).
